These results are taken from patent US20200247815A1, “PYRAZOLYL-CONTAINING TRICYCLIC DERIVATIVE, PREPARATION METHOD THEREFOR AND USE THEREOF” (Jiangsu Hansoh Pharmaceutical Group Co., Ltd., priority 2017, published 2020).

SMILES strings stand for the structures.

Usually IC50 stands for the concentration at which inhibition is half-maximal.

One test addresses T1, ERK-1 kinase (Homo sapiens, UniProt P27361).
T1 construct: purchased Invitrogen PV3311
Put plainly: Inhibition of ERK-1 kinase activity (LANCE Ultra TR-FRET). The test is classed as biochemical. To be noted: ERK1 enzyme 0.4 nM, ATP 38.15 μM. Here is the method: (§1) The object of this test example is to determine the inhibition effect of the compound on ERK-1 kinase activity. In vitro ERK-1 kinase analysis was carried out by using LANCE Ultra (Perkin Elmer) method. The reaction (reaction system 10 μL) was conducted by adding 2.5 μL of test compound/DMSO (final 4%, V/V, diluted to 10 concentrations (400 nM to 0.02 nM) using a 1:3 dilution scheme), 5 μL of a mixed solution of ERK1 enzyme (Invitrogen, # PV3311, final concentration: 0.4 nM) and substrate Ulight-MBP peptide (Perkin Elmer, # TRF0109-M, final concentration: 0.5 μM) formulated with a kinase buffer (50 mM Hepes pH 7.4, 10 mM MgCl2, 1 mM EGTA, 0.01% Triton X-100, 2 mM DTT) and 2.5 μL of ATP solution (Invitrogen, # PV3227, final concentration: 38.15 μM) formulated with the same buffer successively to a 384-well plate (Perkin Elmer OPTIPLATE™) and mixing well. The reaction mixture was incubated at room temperature for 60 minutes. The reaction was stopped by adding 1× LANCE Detection buffer (PerkinElmer # CR97-100) diluted with ultra-pure water, mM EDTA (Invitrogen #15575038) and 1 nM Eu-anti-p-MBP (PerkinElmer # TRF0201-M) antibody in 10 μL/well. The plate was incubated at room temperature for 60 minutes. Excitation reading was performed on Synergy H1 Hybird Reader, H1MFD (Biotek) with an excitation wavelength of 320 nm. TR-FRET rate was calculated by dividing the acceptor emission signal (signal value at 665 nM) by the Eu donor emission signal (signal value at 615 nM). The inhibition TR-FRET rate of the well treated by the compound was calculated relative to the Max signal (DMSO control) and Min signal (no enzyme added) control wells on the plate {% inhibition rate=100−[(test compound−Min average)]/(Max average−Min average)×100}. The 10 concentrations of the compound after 4-fold dilution of the reaction system were 100 nM to 0.005 nM. Abs_IC50 value was calculated by using GraphPad prism fits percentage inhibition rate and ten-point concentration data in a 4-parameter non-linear logic formula.

The next test addresses T2, ERK-2 kinase (Homo sapiens, UniProt P28482).
T2 construct: purchased Invitrogen PV3313
Put plainly: Inhibition of ERK-2 kinase activity (LANCE Ultra TR-FRET). It counts as biochemical. To be noted: ERK-2 enzyme 0.08 nM, ATP 38.15 μM. The method, then: as §1, with “ERK-2” for “ERK-1”, “ERK-2” for “ERK1”, “PV3313,” for “PV3311,”, “0.08” for “0.4”, “EGTA” for “EGTA,”, “IX” for “1×”
For orientation: Time-resolved FRET reads energy transfer from a long-lived donor to a nearby acceptor.

T2 sequence (P28482 whole entry): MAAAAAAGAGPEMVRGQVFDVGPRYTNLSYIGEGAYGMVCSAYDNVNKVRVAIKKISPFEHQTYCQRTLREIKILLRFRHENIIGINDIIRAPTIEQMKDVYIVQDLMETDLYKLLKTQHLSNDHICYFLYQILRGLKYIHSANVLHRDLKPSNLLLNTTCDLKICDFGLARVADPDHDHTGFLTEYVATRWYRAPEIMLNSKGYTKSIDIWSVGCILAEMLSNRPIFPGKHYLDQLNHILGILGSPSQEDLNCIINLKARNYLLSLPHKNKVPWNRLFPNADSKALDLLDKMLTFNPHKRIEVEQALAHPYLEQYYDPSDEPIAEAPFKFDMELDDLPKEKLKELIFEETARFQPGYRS
T1 sequence (P27361 whole entry): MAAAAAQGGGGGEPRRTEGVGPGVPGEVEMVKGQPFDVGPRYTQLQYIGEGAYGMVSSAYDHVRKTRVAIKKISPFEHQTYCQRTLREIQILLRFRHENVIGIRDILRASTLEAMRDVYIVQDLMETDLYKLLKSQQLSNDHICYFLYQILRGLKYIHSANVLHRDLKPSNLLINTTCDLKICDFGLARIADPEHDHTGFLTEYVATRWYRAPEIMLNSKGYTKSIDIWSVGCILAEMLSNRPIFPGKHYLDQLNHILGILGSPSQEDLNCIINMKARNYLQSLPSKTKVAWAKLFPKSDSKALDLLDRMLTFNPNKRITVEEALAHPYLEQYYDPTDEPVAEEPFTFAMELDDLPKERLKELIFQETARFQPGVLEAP

On to `COc1ccc(CNC(=O)c2nc3cc4c(-c5ccncc5)n[nH]c4cc3[nH]2)cc1OC` [Example 3, N-(3,4-dimethoxybenzyl)-3-(pyridin-4-yl)-1,7-dihydroimidazo[4,5-f]indazole-6-carboxamide], for which the figures for the IC50 at ERK-1 kinase and on ERK-2 kinase were 5.48 nM and 3.95 nM, respectively.
In the same order, the values of `Cc1ccc([C@@H](C)NC(=O)c2nc3cc4c(-c5ccncc5)n[nH]c4cc3[nH]2)cc1` [Example 6, (R)-3-(pyridin-4-yl)-N-(1-(p-tolyl)ethyl)-1,7-dihydroimidazo[4,5-f]indazole-6-carboxamide] are 2.09 nM and 0.84 nM.
In the case of `C[C@@H](NC(=O)c1nc2cc3c(-c4ccncc4)n[nH]c3cc2[nH]1)c1ccccn1` [Example 9, (R)—N-(1-(pyridin-2-yl)ethyl)-3-(pyridin-4-yl)-1,7-dihydroimidazo[4,5-f]indazole-6-carboxamide], the IC50 on ERK-1 kinase was 8.6 nM; at ERK-2 kinase, 3.13 nM.
In the same order, the values of `CC(NC(=O)c1nc2cc3c(-c4ccncc4)n[nH]c3cc2[nH]1)c1ccccc1` (stereo not drawn) [Example 11, N-(1-phenylethyl)-3-(pyridin-4-yl)-1,7-dihydroimidazo[4,5-f]indazole-6-carboxamide] are 0.64 nM and 0.29 nM.
On the same counts, the results for `COC[C@@H](NC(=O)c1nc2cc3c(-c4ccncc4)n[nH]c3cc2[nH]1)c1ccccc1` [Example 13, (S)—N-(2-methoxy-1-phenylethyl)-3-(pyridin-4-yl)-1,7-dihydroimidazo[4,5-f]indazole-6-carboxamide] are 3.01 nM and 1.39 nM.
On the same counts, the results for `C[C@@H](NC(=O)c1nc2cc3c(-c4ccncc4)n[nH]c3cc2[nH]1)c1ccc([N+](=O)[O-])cc1` [Example 14, (R)—N-(1-(4-nitrophenyl)ethyl)-3-(pyridin-4-yl)-1,7-dihydroimidazo[4,5-f]indazole-6-carboxamide] are 9.48 nM and 5.07 nM.
For `C[C@@H](NC(=O)c1nc2cc3c(-c4ccncc4)n[nH]c3cc2[nH]1)c1ccc(Br)cc1` [Example 15, (R)—N-(1-(4-bromophenyl)ethyl)-3-(pyridin-4-yl)-1,7-dihydroimidazo[4,5-f]indazole-6-carboxamide], the IC50 was 6.41 nM at ERK-1 kinase and 2.72 nM on ERK-2 kinase.
On the same counts, the results for `C[C@@H](NC(=O)c1nc2cc3c(-c4ccncc4)n[nH]c3cc2[nH]1)c1cccc(C(F)(F)F)c1` [Example 16, (R)-3-(pyridin-4-yl)-N-(1-(3-(trifluoromethyl)phenyl)ethyl)-1,7-dihydroimidazo[4,5-f]indazole-6-carboxamide] are 1 nM and 0.73 nM.
As to `CC[C@@H](NC(=O)c1nc2cc3c(-c4ccncc4)n[nH]c3cc2[nH]1)c1ccccc1` [Example 17, (R)—N-(1-phenylpropyl)-3-(pyridin-4-yl)-1,7-dihydroimidazo[4,5-f]indazole-6-carboxamide], the IC50 on ERK-1 kinase turned out to be 2.34 nM; on ERK-2 kinase, 1.15 nM.
On the same counts, the results for `O=C(N[C@H](CO)c1ccccc1)c1nc2cc3c(-c4ccncc4)n[nH]c3cc2[nH]1` [Example 20, (S)—N-(2-hydroxy-1-phenylethyl)-3-(pyridin-4-yl)-1,7-dihydroimidazo[4,5-f]indazole-6-carboxamide] are 0.22 nM and 0.06 nM.
On the same counts, the results for `N#C[C@@H](NC(=O)c1nc2cc3c(-c4ccncc4)n[nH]c3cc2[nH]1)c1ccccc1` [Example 34, (S)—N-(cyano(phenyl)methyl)-3-(pyridin-4-yl)-1,7-dihydroimidazo[4,5-f]indazole-6-carboxamide] are 0.79 nM and 0.34 nM.
In the same order, the values of `C[C@@H](OC(=O)c1nc2cc3c(-c4ccncc4)n[nH]c3cc2[nH]1)c1ccccc1` [Example 35, (R)-1-phenylethyl 3-(pyridin-4-yl)-1,7-dihydroimidazo[4,5-f]indazole-6-carboxylate] are 1.54 nM and 0.75 nM.
As to `C[C@@H](NC(=O)c1nc2cc3c(-c4ccnc(F)c4)n[nH]c3cc2[nH]1)c1ccccc1` [Example 37, (R)-3-(2-fluoropyridin-4-yl)-N-(1-phenylethyl)-1,7-dihydroimidazo[4,5-f]indazole-6-carboxamide], the IC50 worked out at 0.52 nM at ERK-1 kinase and 0.18 nM at ERK-2 kinase.
On the same counts, the results for `Cc1cccc(C(C)NC(=O)c2nc3cc4c(-c5ccncc5)n[nH]c4cc3[nH]2)n1` (stereo not drawn) [Example 44, N-(1-(6-methylpyridin-2-yl)ethyl)-3-(pyridin-4-yl)-1,7-dihydroimidazo[4,5-f]indazole-6-carboxamide] are 0.95 nM and 0.66 nM.
Take `C[C@@H](NC(=O)c1nc2cc3c(-c4ccncc4)n[nH]c3c(Cl)c2[nH]1)c1ccccc1` [Example 46, (R)-8-chloro-N-(1-phenylethyl)-3-(pyridin-4-yl)-1,7-dihydroimidazo[4,5-f]indazole-6-carboxamide]: the figures for the IC50 at ERK-1 kinase and on ERK-2 kinase were 3.3 nM and 1.7 nM, respectively.
As for `Cc1cccc([C@@H](C)NC(=O)c2nc3cc4c(-c5ccncc5)n[nH]c4cc3[nH]2)n1` [Example 47, (R)—N-(1-(6-methylpyridin-2-yl)ethyl)-3-(pyridin-4-yl)-1,7-dihydroimidazo[4,5-f]indazole-6-carboxamide], the IC50 on ERK-1 kinase was 0.49 nM; at ERK-2 kinase, 0.17 nM.
`CC(NC(=O)c1nc2cc3c(-c4ccncc4)n[nH]c3cc2[nH]1)c1cnccn1` (stereo not drawn) [Example 51, N-(1-(pyrazin-2-yl)ethyl)-3-(pyridin-4-yl)-1,7-dihydroimidazo[4,5-f]indazole-6-carboxamide]: the IC50 on ERK-1 kinase worked out at 2.42 nM; on ERK-2 kinase, 0.91 nM.
In the same order, the values of `C[C@@H](NC(=O)c1nc2cc3c(-c4ccncn4)n[nH]c3cc2[nH]1)c1ccccc1` [Example 57, (R)—N-(1-phenylethyl)-3-(pyrimidin-4-yl)-1,7-dihydroimidazo[4,5-f]indazole-6-carboxamide] are 3.51 nM and 1.43 nM.
On the same counts, the results for `C[C@@H](NC(=O)c1nc2cc3c(-c4ccncc4)n[nH]c3cc2[nH]1)c1ccc(F)c(Cl)c1` [Example 63, (R)—N-(1-(3-chloro-4-fluorophenyl)ethyl)-3-(pyridin-4-yl)-1,7-dihydroimidazo[4,5-f]indazole-6-carboxamide] are 2.93 nM and 2.88 nM.
In the same order, the values of `O=C(c1nc2cc3c(-c4ccncc4)n[nH]c3cc2[nH]1)N1C[C@@H]1c1ccccc1` [Example 65, (S)-(2-Phenylaziridin-1-yl)(3-(pyridin-4-yl)-1,7-dihydroimidazo[4,5-f]indazol-6-yl)methanone] are 3.73 nM and 1.58 nM.
For `C[C@@H](CNC(=O)c1nc2cc3c(-c4ccncc4)n[nH]c3cc2[nH]1)c1ccccc1` [Example 66, (R)—N-(2-phenylpropyl)-3-(pyridin-4-yl)-1,7-dihydroimidazo[4,5-f]indazole-6-carboxamide], the IC50 was 1.52 nM on ERK-1 kinase and 0.83 nM at ERK-2 kinase.
